The values that follow come from US8232299B2, “Phthalimide derivatives that influence cellular vesicular systems, pharmaceutical compositions, and use thereof” (Avidin Kft., priority 2007, dated 2012).

For one experiment, the system named is human melanoma (HT168M1). Kind of experiment: subcutaneous melanoma tumor model. It counts as in vivo, CB17/scid mice. Particulars: 40 mg/kg per os, once a day five days per week for 3 weeks from day 7; FIG. 8. On the procedure: Slightly anesthetized (diethyl ether narcosis) adult male CB17/scid mice born with immunodeficiency were subcutaneously (s.c.) implanted with 8×10^5 cells from in vitro human melanoma (HT168M1) cultures. After tumor cell inoculation animals were randomly assigned into three groups and their ears were marked. From the 7th day after the tumor cell inoculation mice were treated once a day five days per week for 3 weeks with compound 2 (40 mg/kg), or with compound 3b (40 mg/kg) per os by gavage. Control animals were treated with appropriate dilution of the carrier (DMSO) in a similar manner with similar frequency. Body weight changes were monitored once a week for each animal. When subcutaneous tumor reached palpable size its dimensions were also detected with caliper. Tumor volume was estimated by the formula π/6×a×b^2, where “a” is the longer and “b” is the shorter diameter. 30 days after implantation animals were sacrificed by bleeding in Nembutal (75 mg/kg) anesthesia. Evaluation was based on the mass of the primary tumor.
In this experiment the effect of compound 2 and compound 3b was tested in oral administration at the same dose (40 mg/kg).

Another experiment relates to tumor necrosis factor. Particulars: Japanese patent application JP10072346; cited from earlier work.
For experiment [1] the following is noted: Japanese patent JP10072346; cited from earlier work.

`CC(C)c1cccc(C(C)C)c1N1C(=O)c2c(F)c(F)c(F)c(F)c2C1=O` [Compound 2, 2-(2,6-diizopropylphenyl)-4,5,6,7-tetrafluorisoindolin-1,3-dione]: in the experiment with human melanoma (HT168M1), the “effect on growth of the subcutaneous primary tumor (tumor mass)” value is on record as “not significant”. Besides, in the experiment with tumor necrosis factor, the “production of tumor necrosis factor” value is recorded as “inhibits the production of tumor necrosis factor”. For the same compound, the anti-inflammatory effect result in experiment [1] was “has anti-inflammatory effect”.
